ChEMBL document CHEMBL5506038, “Discovery of LC-MI-3: A Potent and Orally Bioavailable Degrader of Interleukin-1 Receptor-Associated Kinase 4 for the Treatment of Inflammatory Diseases” (J Med Chem, 2024)
Active and inactive are the calls of the source. The rule behind the calls is not given here.

Columns and labels:
[1] = biological target: Protein cereblon/Interleukin-1 receptor-associated kinase 4 (Mus musculus) (UniProt Q8C7D2+Q8R4K2); assay: PROTAC activity at IRAK4/CRBN in mouse BaF3 cells assessed as reduction in IRAK4 level at 100 nM incubated for 12 hrs by Western blot analysis relative to control; format: cell-based; design: scale not given: the % may be the effect or the level left
Chain of Protein cereblon/Interleukin-1 receptor-associated kinase 4 (Mus musculus) (Q8C7D2 whole entry, looked up, one chain of several): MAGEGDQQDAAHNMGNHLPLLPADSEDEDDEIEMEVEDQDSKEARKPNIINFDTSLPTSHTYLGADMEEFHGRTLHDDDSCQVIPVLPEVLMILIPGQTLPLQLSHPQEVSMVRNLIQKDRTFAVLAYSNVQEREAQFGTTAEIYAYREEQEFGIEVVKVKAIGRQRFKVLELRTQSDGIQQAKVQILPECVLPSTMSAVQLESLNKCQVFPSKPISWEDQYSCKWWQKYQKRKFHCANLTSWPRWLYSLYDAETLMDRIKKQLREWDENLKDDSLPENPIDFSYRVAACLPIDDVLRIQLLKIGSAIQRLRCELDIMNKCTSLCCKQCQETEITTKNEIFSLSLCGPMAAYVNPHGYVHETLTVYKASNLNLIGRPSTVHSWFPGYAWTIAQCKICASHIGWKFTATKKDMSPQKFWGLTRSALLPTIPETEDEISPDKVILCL

[2] = biological target: T1, Interleukin-1 receptor-associated kinase 4 (Homo sapiens, UniProt Q9NWZ3); assay: (§1) Inhibition of IRAK4 (unknown origin)
T1 sequence (Q9NWZ3 whole entry): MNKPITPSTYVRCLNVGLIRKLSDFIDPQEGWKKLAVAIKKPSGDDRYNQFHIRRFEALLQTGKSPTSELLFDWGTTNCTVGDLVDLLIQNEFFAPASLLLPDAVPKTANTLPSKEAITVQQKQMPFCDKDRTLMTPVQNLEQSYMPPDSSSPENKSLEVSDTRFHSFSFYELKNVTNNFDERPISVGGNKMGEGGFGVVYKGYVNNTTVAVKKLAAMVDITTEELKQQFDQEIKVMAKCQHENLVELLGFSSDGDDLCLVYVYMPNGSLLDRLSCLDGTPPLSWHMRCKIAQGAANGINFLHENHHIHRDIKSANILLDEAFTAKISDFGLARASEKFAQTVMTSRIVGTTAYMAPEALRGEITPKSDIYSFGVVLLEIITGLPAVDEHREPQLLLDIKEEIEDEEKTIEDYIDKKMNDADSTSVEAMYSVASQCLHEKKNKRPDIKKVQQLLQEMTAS

[3] = biological target: MAP kinase p38 (Mus musculus) (UniProt P47811+O08911+Q9WUI1+Q9Z1B7); assay: Inhibition of MAPK phosphorylation in LPS-induced mouse RAW264.7 cells at 1 uM pretreated with compound for 1 hr followed by LPS-induction and measured after 2 hrs by Western blot analysis; format: cell-based; conditions: time 3.0 hrs
[4] = biological target: Serine/threonine-protein kinase RIO3 (Homo sapiens) (UniProt O14730); assay: Inhibition of RIOK3 (unknown origin) at 1 uM relative to control
[5] = system: Mus musculus; assay: Anti-inflammatory activity against LPS-induced acute […] injury C57BL/6 mouse model assessed as reduction in ERK level at 20 mg/kg, IG pretreated with compound for 12 hrs followed by LPS-induction and measured after 6 hrs; format: functional, organism-based; conditions: time 18.0 hrs
[6] = biological target: T2, Interleukin-1 receptor-associated kinase 4 (Mus musculus) (UniProt Q8R4K2); assay: Inhibition of IRAK4 in LPS-induced mouse RAW264.7 cells assessed as effect on IkappaB-alpha level at 1 to 5 uM pretreated with LPS for 1 hr followed by compound administration and measured after 2 hrs by Western blotting analysis; format: cell-based; conditions: dose 1-5 µM
T2 sequence (whole entry): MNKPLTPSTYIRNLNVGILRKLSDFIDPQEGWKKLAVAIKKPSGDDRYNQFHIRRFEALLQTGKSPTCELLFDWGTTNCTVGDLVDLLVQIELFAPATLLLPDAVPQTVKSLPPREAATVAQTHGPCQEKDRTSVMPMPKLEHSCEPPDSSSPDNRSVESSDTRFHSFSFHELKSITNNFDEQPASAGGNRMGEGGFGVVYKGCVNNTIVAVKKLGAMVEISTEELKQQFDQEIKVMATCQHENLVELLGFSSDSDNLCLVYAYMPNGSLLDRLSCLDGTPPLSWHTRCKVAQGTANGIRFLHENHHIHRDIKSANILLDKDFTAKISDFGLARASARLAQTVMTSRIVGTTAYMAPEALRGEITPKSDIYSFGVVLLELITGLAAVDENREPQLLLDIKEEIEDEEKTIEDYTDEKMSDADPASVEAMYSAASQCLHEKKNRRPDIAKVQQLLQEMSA

[7] = biological target: T2, Interleukin-1 receptor-associated kinase 4 (Mus musculus); assay: Inhibition of IRAK4 in LPS-induced mouse RAW264.7 cells assessed as reduction in p65 nuclear translocation at 1 to 5 uM pretreated with LPS for 1 hr followed by compound administration and measured after 2 hrs by immunofluorescence analysis; format: cell-based; conditions: dose 1-5 µM
[8] = biological target: Interleukin-1 receptor-associated kinase 1 (Homo sapiens) (UniProt P51617); assay: Inhibition of IRAK1 (unknown origin) at 1 uM relative to control
[9] = biological target: Tyrosine-protein kinase JAK3 (Homo sapiens) (UniProt P52333); assay: Inhibition of JAK3 (unknown origin) at 1 uM relative to control
Chain of Tyrosine-protein kinase JAK3 (Homo sapiens) (P52333 whole entry): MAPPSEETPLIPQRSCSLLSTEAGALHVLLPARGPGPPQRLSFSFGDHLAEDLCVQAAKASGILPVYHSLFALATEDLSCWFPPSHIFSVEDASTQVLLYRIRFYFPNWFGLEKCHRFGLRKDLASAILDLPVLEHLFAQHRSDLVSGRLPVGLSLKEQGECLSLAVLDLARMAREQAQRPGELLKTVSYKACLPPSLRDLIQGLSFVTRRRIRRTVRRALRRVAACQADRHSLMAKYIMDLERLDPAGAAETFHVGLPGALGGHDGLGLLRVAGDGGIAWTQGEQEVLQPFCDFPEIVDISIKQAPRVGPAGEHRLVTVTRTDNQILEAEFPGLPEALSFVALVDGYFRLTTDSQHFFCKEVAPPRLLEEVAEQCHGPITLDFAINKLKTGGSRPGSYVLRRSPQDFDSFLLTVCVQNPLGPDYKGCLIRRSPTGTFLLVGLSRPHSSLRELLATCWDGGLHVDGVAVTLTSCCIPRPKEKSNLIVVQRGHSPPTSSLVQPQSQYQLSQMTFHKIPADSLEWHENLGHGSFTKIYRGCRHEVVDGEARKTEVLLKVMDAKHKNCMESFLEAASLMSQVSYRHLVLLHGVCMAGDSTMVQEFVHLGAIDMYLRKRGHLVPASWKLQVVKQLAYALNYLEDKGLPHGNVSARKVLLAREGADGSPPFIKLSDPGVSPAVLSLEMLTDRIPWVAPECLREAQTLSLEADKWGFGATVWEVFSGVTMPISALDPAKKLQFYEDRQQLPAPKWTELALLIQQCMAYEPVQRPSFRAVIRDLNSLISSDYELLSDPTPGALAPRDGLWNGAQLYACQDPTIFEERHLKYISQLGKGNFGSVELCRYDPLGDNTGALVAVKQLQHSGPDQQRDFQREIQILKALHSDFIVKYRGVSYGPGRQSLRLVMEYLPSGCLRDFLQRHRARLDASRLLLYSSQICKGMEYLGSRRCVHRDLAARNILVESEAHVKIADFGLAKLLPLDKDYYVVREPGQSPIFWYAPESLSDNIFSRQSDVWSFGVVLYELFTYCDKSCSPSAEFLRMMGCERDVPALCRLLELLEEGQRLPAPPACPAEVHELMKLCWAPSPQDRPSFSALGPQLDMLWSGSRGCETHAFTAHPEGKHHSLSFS

[10] = biological target: T2, Interleukin-1 receptor-associated kinase 4 (Mus musculus); assay: Inhibition of IRAK4 in LPS-induced mouse RAW264.7 cells assessed as reduction in ERK level at 1 to 5 uM pretreated with LPS for 1 hr followed by compound administration and measured after 2 hrs by Western blotting analysis; format: cell-based; conditions: dose 1-5 µM
[11] = system: RAW264.7; assay: Activation of NF-kappaB pathway in LPS-induced mouse RAW264.7 cells at 5 uM pretreated with compound for 1 hr followed by LPS-induction and measured after 6 hrs by flow cytometry analysis; format: cell-based; conditions: filed as activator, time 7.0 hrs
[12] = biological target: Dual specificity mitogen-activated protein kinase kinase 5 (Homo sapiens) (UniProt Q13163); assay: Inhibition of MEK5 (unknown origin) at 1 uM relative to control
[13] = biological target: Mitogen-activated protein kinase kinase kinase kinase 4 (Homo sapiens) (UniProt O95819); assay: Inhibition of MAP4K4 (unknown origin) at 1 uM relative to control
Chain of Mitogen-activated protein kinase kinase kinase kinase 4 (Homo sapiens) (O95819 2-1239 limits assumed): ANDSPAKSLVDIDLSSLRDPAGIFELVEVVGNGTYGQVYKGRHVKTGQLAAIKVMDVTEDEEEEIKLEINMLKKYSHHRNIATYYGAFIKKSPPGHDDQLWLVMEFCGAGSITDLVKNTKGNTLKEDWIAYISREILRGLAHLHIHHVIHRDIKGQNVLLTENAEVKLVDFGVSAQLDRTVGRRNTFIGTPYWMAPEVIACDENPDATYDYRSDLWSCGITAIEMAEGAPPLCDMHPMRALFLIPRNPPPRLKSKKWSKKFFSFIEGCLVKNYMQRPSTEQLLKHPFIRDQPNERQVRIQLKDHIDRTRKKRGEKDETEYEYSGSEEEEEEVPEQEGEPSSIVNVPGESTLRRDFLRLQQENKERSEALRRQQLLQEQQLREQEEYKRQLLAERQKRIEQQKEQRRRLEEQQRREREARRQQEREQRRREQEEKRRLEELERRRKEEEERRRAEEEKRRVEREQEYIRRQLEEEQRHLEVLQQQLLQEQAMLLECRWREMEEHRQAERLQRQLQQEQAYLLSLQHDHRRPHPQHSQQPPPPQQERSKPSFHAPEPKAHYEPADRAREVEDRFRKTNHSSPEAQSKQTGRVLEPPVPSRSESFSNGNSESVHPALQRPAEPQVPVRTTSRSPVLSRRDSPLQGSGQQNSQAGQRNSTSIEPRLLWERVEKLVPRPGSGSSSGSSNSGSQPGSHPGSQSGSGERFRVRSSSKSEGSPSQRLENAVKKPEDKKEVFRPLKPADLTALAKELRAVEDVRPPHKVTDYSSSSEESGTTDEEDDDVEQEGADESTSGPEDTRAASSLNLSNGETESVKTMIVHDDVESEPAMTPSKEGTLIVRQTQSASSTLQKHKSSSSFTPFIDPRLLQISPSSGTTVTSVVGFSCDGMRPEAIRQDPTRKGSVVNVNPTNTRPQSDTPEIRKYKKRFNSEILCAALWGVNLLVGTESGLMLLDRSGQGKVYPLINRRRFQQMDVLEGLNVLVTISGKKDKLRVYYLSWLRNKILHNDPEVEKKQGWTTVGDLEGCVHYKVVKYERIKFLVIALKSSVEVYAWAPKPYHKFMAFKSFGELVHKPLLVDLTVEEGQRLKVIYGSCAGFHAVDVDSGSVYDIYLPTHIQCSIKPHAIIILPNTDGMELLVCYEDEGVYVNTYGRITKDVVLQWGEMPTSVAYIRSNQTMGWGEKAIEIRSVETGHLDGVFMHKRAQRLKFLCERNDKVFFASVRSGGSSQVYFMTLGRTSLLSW

[14] = biological target: Mitogen-activated protein kinase kinase kinase 19 (Homo sapiens) (UniProt Q56UN5); assay: Inhibition of YSK4 (unknown origin) at 1 uM relative to control
[15] = biological target: Tyrosine-protein kinase JAK1 (Homo sapiens) (UniProt P23458); assay: Inhibition of JAK1 (unknown origin) at 1 uM relative to control
Chain of Tyrosine-protein kinase JAK1 (Homo sapiens) (P23458 whole entry): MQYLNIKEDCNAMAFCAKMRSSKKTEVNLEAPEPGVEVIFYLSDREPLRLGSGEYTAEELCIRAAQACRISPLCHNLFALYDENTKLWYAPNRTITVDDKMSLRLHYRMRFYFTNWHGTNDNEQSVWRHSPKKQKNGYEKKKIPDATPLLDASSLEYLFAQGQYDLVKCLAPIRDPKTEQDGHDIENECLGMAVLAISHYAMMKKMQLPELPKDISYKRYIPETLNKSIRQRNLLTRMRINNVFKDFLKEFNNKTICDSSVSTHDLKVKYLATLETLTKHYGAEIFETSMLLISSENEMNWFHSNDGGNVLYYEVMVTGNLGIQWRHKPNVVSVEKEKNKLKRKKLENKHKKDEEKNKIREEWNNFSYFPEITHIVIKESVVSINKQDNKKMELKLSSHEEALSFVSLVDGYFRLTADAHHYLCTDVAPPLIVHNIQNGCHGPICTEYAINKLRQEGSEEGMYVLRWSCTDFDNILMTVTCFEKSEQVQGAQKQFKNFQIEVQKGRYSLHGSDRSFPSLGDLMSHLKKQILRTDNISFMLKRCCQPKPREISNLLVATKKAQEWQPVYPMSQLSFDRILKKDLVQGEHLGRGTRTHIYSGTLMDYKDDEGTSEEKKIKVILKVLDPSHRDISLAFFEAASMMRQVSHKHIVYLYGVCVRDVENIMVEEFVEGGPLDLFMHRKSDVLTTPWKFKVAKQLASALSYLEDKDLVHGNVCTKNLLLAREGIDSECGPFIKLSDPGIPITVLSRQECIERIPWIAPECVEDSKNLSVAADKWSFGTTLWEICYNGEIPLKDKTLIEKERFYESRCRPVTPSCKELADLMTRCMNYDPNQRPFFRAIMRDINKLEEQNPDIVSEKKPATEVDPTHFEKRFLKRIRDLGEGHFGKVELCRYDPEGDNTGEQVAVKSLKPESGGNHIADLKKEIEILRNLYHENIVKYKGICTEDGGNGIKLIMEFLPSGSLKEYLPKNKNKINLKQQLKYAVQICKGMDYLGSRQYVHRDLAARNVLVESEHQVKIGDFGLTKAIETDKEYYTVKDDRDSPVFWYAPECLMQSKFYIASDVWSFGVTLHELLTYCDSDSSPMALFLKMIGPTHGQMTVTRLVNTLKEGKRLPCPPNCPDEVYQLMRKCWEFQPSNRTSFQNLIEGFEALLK

[16] = biological target: T2, Interleukin-1 receptor-associated kinase 4 (Mus musculus); assay: Inhibition of IRAK4 in LPS-induced mouse RAW264.7 cells assessed as reduction in JNK level at 1 to 5 uM pretreated with LPS for 1 hr followed by compound administration and measured after 2 hrs by Western blotting analysis; format: cell-based; conditions: dose 1-5 µM
[17] = biological target: TRAF2 and NCK-interacting protein kinase (Homo sapiens) (UniProt Q9UKE5); assay: Inhibition of TNIK (unknown origin) at 1 uM relative to control
[18] = biological target: T2, Interleukin-1 receptor-associated kinase 4 (Mus musculus); assay: Inhibition of IRAK4 in LPS-induced mouse RAW264.7 cells assessed as reduction in p38 level at 1 to 5 uM pretreated with LPS for 1 hr followed by compound administration and measured after 2 hrs by Western blotting analysis; format: cell-based; conditions: dose 1-5 µM
[19] = system: RAW264.7; assay: Activation of NF-kappaB pathway in LPS-induced mouse RAW264.7 cells expressing EGFP at 5 uM pretreated with compound for 1 hr followed by LPS-induction and measured after 6 hrs by flow cytometry analysis; format: cell-based; conditions: filed as activator, time 7.0 hrs
[20] = biological target: Citron Rho-interacting kinase (Homo sapiens) (UniProt O14578); assay: Inhibition of CIT (unknown origin) at 1 uM relative to control
[21] = biological target: Serine/threonine-protein kinase RIO1 (Homo sapiens) (UniProt Q9BRS2); assay: Inhibition of RIOK1 (unknown origin) at 1 uM relative to control
Chain of Serine/threonine-protein kinase RIO1 (Homo sapiens) (Q9BRS2 whole entry): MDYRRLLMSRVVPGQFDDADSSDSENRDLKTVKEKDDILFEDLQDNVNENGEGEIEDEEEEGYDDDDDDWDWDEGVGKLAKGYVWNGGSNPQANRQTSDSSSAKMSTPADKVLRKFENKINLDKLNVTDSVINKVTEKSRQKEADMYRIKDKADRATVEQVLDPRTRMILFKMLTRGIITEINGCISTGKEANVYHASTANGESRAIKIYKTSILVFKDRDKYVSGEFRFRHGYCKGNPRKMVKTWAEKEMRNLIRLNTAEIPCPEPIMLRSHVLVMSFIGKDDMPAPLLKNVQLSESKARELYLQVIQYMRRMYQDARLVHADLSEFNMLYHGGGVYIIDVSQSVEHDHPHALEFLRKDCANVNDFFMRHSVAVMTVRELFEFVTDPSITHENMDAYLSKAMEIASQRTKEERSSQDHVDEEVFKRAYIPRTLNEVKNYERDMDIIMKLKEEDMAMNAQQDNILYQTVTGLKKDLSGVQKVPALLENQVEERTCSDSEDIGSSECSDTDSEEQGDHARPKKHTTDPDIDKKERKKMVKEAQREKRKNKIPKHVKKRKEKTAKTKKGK

[22] = system: RAW264.7; assay: Activation of NF-kappaB pathway in LPS-induced mouse RAW264.7 cells expressing EGFP at 5 uM pretreated with compound for 1 hr followed by LPS-induction and measured at 15 min by flow cytometry analysis; format: cell-based; conditions: filed as activator, time 75.0 min
[23] = biological target: T3, Interleukin-1 receptor-associated kinase 4 (Homo sapiens) (UniProt Q9NWZ3); assay: as §1
T3 sequence (whole entry): T1 sequence (Q9NWZ3 whole entry)

[24] = Drug metabolism in rat hepatocyte assessed as amide hydrolysis-mediated metabolite formation by LC-MS/MS analysis; format: ADME, cell-based; conditions: hepatocytes
[25] = biological target: Protein cereblon/Interleukin-1 receptor-associated kinase 4 (Homo sapiens, UniProt Q9NWZ3+Q96SW2); assay: PROTAC activity at IRAK4/CRBN in HEK293T cells assessed as induction of IRAK4 degradation by immunoblotting analysis; format: cell-based
Chain of Protein cereblon/Interleukin-1 receptor-associated kinase 4 (Q96SW2 whole entry, one chain of several): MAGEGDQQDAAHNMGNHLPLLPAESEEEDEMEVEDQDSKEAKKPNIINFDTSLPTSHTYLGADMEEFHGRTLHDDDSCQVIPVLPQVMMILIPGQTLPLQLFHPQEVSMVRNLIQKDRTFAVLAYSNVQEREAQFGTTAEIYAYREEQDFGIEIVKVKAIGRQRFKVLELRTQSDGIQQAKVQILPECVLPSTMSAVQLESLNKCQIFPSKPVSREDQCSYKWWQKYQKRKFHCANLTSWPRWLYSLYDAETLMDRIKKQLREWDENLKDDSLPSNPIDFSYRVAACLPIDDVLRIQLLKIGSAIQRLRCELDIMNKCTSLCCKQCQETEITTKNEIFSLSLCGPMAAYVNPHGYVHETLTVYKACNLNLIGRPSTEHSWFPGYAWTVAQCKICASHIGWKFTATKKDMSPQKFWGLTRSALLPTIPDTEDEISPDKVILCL

COc1cc(N2CCN(C(=O)CCCCCCCCCCCNc3cccc4c3C(=O)N(C3CCC(=O)NC3=O)C4=O)CC2)ccc1NC(=O)c1cccc(-c2ccn[nH]2)n1 (stereo not given)
Activity [1]: 32%
IC50 [2]: < 100 nM

COc1cc(N2CCN(CC(=O)NCCNc3cccc4c3C(=O)N(C3CCC(=O)NC3=O)C4=O)CC2)ccc1NC(=O)c1cccc(-c2ccn[nH]2)n1 (stereo not given)
Activity [1]: 63%
IC50 [2]: < 100 nM

COc1cc(N2CCOCC2)ccc1NC(=O)c1cccc(-c2ccn[nH]2)n1
inhibition [3]: Active
inhibition [4]: > 95%
Activity [5]: Active
inhibition [6]: Active
inhibition [7]: Active
inhibition [8]: > 95%
inhibition [9]: inactive
inhibition [10]: Active
Activity [11]: Active
inhibition [12]: inactive
inhibition [13]: inactive
inhibition [14]: inactive
inhibition [15]: inactive
inhibition [16]: Active
inhibition [17]: inactive
inhibition [18]: Active
Activity [19]: Active
Activity [1]: 100%
inhibition [20]: inactive
inhibition [21]: inactive
Activity [22]: Active

COc1cc(N2CCN(C(=O)C3CN(c4ccc5c(c4)C(=O)N(C4CCC(=O)NC4=O)C5=O)C3)CC2)ccc1NC(=O)c1cccc(-c2ccn[nH]2)n1 (stereo not given)
Activity [1]: 26%
IC50 [2]: < 100 nM

COc1cc(N2CCN(C(=O)C3CCN(c4ccc5c(c4)C(=O)N(C4CCC(=O)NC4=O)C5=O)CC3)CC2)ccc1NC(=O)c1cccc(-c2ccn[nH]2)n1 (stereo not given)
inhibition [23]: inactive

COc1cc(N2CCN(CC(=O)NCCOCCOCCNc3cccc4c3C(=O)N(C3CCC(=O)NC3=O)C4=O)CC2)ccc1NC(=O)c1cccc(-c2ccn[nH]2)n1 (stereo not given)
Drug metabolism [24]: Metabolite_Detected

COc1cc(N2CCN(C(=O)CCCCCNc3cccc4c3C(=O)N(C3CCC(=O)NC3=O)C4=O)CC2)ccc1NC(=O)c1cccc(-c2ccn[nH]2)n1 (stereo not given)
Activity [1]: 55%
IC50 [2]: < 100 nM

COc1cc(N2CCN(CC(=O)NCCCCCCCCNc3cccc4c3C(=O)N(C3CCC(=O)NC3=O)C4=O)CC2)ccc1NC(=O)c1cccc(-c2ccn[nH]2)n1 (stereo not given)
inhibition [23]: inactive

CC(C)Nc1cc(-n2ccc3cc(C#N)cnc32)ncc1C(=O)NC1CCC(C(=O)NCCOCCNC(=O)COc2cccc3c2C(=O)N(C2CCC(=O)NC2=O)C3=O)CC1 (stereo not given)
DC50 [25]: 405 nM

COc1cc(N2CCN(CC(=O)NCCOCCOCCNC(=O)C3CCN(c4ccc5c(c4)C(=O)N(C4CCC(=O)NC4=O)C5=O)CC3)CC2)ccc1NC(=O)c1cccc(-c2ccn[nH]2)n1 (stereo not given)
inhibition [23]: inactive

COc1cc(N2CCN(CC(=O)NCCOCCOCCOCCOCCNc3cccc4c3C(=O)N(C3CCC(=O)NC3=O)C4=O)CC2)ccc1NC(=O)c1cccc(-c2ccn[nH]2)n1 (stereo not given)
inhibition [23]: inactive
